From ChEMBL document CHEMBL1130578, “Solid-phase synthesis of a N-carboxyalkyl tripeptide combinatorial library” (Bioorg Med Chem Lett, 1997)

What follows are molecules tested against Stromelysin-1 (Homo sapiens, UniProt P08254) (assay: Inhibition of matrix metalloprotease-3).
Sequence of Stromelysin-1 (P08254 whole entry): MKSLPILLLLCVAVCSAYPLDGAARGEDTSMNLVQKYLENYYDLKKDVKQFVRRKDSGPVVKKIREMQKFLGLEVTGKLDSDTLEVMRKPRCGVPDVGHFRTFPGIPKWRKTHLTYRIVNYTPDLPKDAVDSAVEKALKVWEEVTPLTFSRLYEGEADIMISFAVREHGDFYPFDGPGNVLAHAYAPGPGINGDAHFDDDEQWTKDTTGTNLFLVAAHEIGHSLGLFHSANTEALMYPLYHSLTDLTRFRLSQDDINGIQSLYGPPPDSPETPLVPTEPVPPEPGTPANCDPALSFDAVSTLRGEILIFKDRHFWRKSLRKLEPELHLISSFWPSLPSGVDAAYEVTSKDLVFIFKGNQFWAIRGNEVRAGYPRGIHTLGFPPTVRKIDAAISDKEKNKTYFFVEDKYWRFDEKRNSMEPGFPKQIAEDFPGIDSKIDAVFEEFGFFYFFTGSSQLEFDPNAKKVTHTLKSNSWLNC

| Structure (SMILES) | IC50 [nM] |
| --- | --- |
| CCCCCCC(N[C@@H](CCc1ccccc1)C(=O)N[C@@H](CCCN=C(N)N)C(=O)N[C@@H](CCCC)C(=O)OC)C(=O)O (stereo not given in full) | 900 |
| CCCCCCC(N[C@@H](CCc1ccccc1)C(=O)N[C@@H](CCCN=C(N)N)C(=O)N[C@@H](CCc1ccccc1)C(=O)OC)C(=O)O (stereo not given in full) | 800 |
| CCCCCCC(N[C@@H](CCc1ccccc1)C(=O)N[C@@H](CCCN=C(N)N)C(=O)N[C@@H](CC(C)C)C(=O)OC)C(=O)O (stereo not given in full) | 400 |
| CCCCCCC(N[C@@H](CCc1ccccc1)C(=O)N[C@@H](CCCN=C(N)N)C(=O)N[C@@H](Cc1cc2ccccc2[nH]1)C(=O)OC)C(=O)O (stereo not given in full) | 900 |
| CCCCCCC(N[C@@H](CCc1ccccc1)C(=O)N[C@@H](CCCN=C(N)N)C(=O)N[C@@H](CCC(N)=O)C(=O)OC)C(=O)O (stereo not given in full) | 900 |
